These results are taken from ChEMBL document CHEMBL1201862, “PubChem BioAssay data set” (2004).

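Method: 48-hour compound exposure of cells in 96-well plates, five concentrations, linear interpolation of endpoints. Abbreviation: GI50, concentration required for 50% inhibition of growth.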 The source made the active and inactive calls. Cut-off read from the data, not from the text of the source: active = GI50 up to about 1.1 µM and inactive = higher. Bounds are passed on as bounds.

Common to all, as to assay: inhibition of tumour cell growth, NCI panel, 48 h
Test [1] concerns CCRF-CEM.
Test [2] relates to COLO 205.
Test [3] concerns HCC 2998.
The subject of test [4] is SK-MEL-2.
The test system of test [5] is MOLT-4.
Test [6] concerns U-251.
Test [7] relates to OVCAR-4.
In test [8] the test system is SNB-19.
Test [9] concerns OVCAR-5.
For test [10], the system named is NCI-H460.
The subject of test [11] is NCI-H23.
For test [12], the system named is HOP-92.
The subject of test [13] is UACC-257.
For test [14], the system named is SK-MEL-28.
Test [15] relates to OVCAR-3.
The subject of test [16] is A498.
Test [17] relates to CAKI-1.
Test [18] deals with Malme-3M.
The test system of test [19] is NCI-H226.
Test [20] relates to NCI/ADR-RES.

As to `c1ccc(-n2cnnc2-c2nsc3ccccc23)cc1`, the GI50 in test [1], in test [2], in [3], in test [4], in test [5] and in test [6] was > 100 µM (inactive) in each case. Also, the GI50 in test [7] is > 100 µM (inactive); in test [8], > 100 µM (inactive); in test [9] it was > 100 µM (inactive); in test [10], > 100 µM (inactive); in test [11], > 100 µM (inactive); in [12] it was 53.1 µM (inactive). The GI50 in test [13] was > 100 µM (inactive); in test [14] it was > 100 µM (inactive); in test [15] it was 80.2 µM (inactive).
As for `COc1ccccc1OCC(COC(=O)Nc1ccccc1)OC(=O)Nc1ccccc1` (stereo not given), the GI50 is > 100 µM (inactive) in test [1]; 60.3 µM (inactive) in [16]; 94.2 µM (inactive) in test [2]; > 100 µM (inactive) in [3]; 23.1 µM (inactive) in test [4]; 20.3 µM (inactive) in [17]. For the same compound, the GI50 in [6] is 41.4 µM (inactive); in [7] it was 55.3 µM (inactive); in test [8], 31.5 µM (inactive); in test [9] it was > 100 µM (inactive); in test [10], 48.5 µM (inactive); in test [18] it was 60.8 µM (inactive). The GI50 in [19] is 36.2 µM (inactive); in [11], 73.1 µM (inactive); in test [12], 6.25 µM (inactive); in test [13] it was > 100 µM (inactive); in test [14] it was > 100 µM (inactive); in test [15], > 100 µM (inactive).
In the case of `COc1ccc(N2C(=O)/C(=C(\C)c3cc4ccccc4oc3=O)N=C2c2cc([N+](=O)[O-])ccc2Cl)cc1`, the GI50 in test [1] was 32.5 µM (inactive); in test [16], 24 µM (inactive); in test [2], 43.9 µM (inactive); in [3], 43.5 µM (inactive); in test [4] it was 61 µM (inactive); in [17], 29.6 µM (inactive). Moreover, the GI50 in test [5] is 29.7 µM (inactive); in test [6], 48.1 µM (inactive); in [7] it was 38.4 µM (inactive); in [8], 32.7 µM (inactive); in test [9], > 100 µM (inactive); in [10] it was 41.9 µM (inactive). The GI50 in [18] was 45.2 µM (inactive); in test [19], > 100 µM (inactive); in [11], 11.2 µM (inactive); in [13], 44 µM (inactive); in test [14], 66.4 µM (inactive); in test [15], 73.8 µM (inactive).
Regarding `COc1ccc(/C=c2\sc3n(c2=O)CCN=3)cc1`, the GI50 in test [1] is 96.2 µM (inactive); in [3], 62.4 µM (inactive); in [4] it was > 100 µM (inactive); in test [5], 68.5 µM (inactive); in test [6], > 100 µM (inactive); in test [7], > 100 µM (inactive). Also, the GI50 is > 100 µM (inactive) in test [9]; > 100 µM (inactive) in test [10]; 39.1 µM (inactive) in test [18]; > 100 µM (inactive) in test [11]; 29.8 µM (inactive) in [12]; 47.5 µM (inactive) in test [13]. Moreover, the GI50 in [14] and in [15] was > 100 µM (inactive) in each case.
As to `O=c1ccn([C@@H]2C=C(CO)[C@@H](O)[C@H]2O)c(=O)[nH]1`, the GI50 in [1], in test [2], in test [3], in [4], in test [17] and in test [6] was > 625 µM (inactive) throughout. For the same compound, the GI50 in test [7], in test [8], in [10], in [18], in [19] and in test [11] was > 625 µM (inactive) each time. The GI50 in [12], in [14], in test [20] and in [15] was > 625 µM (inactive) in each case.
Consider `C[C@H]1O[C@@H](O[C@H]2[C@@H](O)C[C@H](O[C@H]3[C@@H](O)C[C@H](O[C@H]4CC[C@@]5(C)[C@H](CC[C@@H]6[C@@H]5CC[C@]5(C)[C@@H](C7=CC(=O)OC7)CC[C@]65O)C4)O[C@@H]3C)O[C@@H]2C)C[C@H](O)[C@@H]1O` [DIGITOXIN], for which the GI50 is < 0.0199 µM (active) in test [1]; 0.0501 µM (active) in test [2]; 0.171 µM (active) in test [3]; 0.0641 µM (active) in test [4]; 0.0184 µM (active) in test [17]; 0.0199 µM (active) in test [7]. Further, the GI50 in [8] is 0.075 µM (active); in [9], 0.0543 µM (active); in test [18], 0.028 µM (active); in test [19], 0.0635 µM (active); in [11], 0.0185 µM (active); in [12], 0.0422 µM (active). In addition, the GI50 in [13] is 0.0582 µM (active); in [14], 0.092 µM (active); in test [20] it was 0.0283 µM (active); in test [15] it was < 0.0172 µM (active).
Regarding `COc1cccc2c1C(=O)c1c(O)c3c(c(O)c1C2=O)C[C@@](O)(C(=O)CN1CCOCC1)C[C@@H]3OC1CC(N)C(O)C(C)O1` (stereo not given in full), the GI50 in test [16] was 8.55 µM (inactive); in test [2], 5.94 µM (inactive); in test [3] it was 5.73 µM (inactive); in test [4] it was 9.48 µM (inactive); in test [6], 2.12 µM (inactive); in [7], 9.53 µM (inactive). Further, the GI50 is 2.62 µM (inactive) in test [8]; 12.4 µM (inactive) in test [9]; 0.446 µM (active) in test [10]; 3.27 µM (inactive) in test [18]; 1.85 µM (inactive) in [19]; 5.3 µM (inactive) in [11]. Further, the GI50 in test [13] was 0.000769 µM (active); in test [14] it was 12.2 µM (inactive); in test [20] it was 5.52 µM (inactive); in [15] it was 0.000912 µM (active).
For `C=C1C(=O)[C@@]23CC[C@H]4[C@@](C)(CCC[C@@]4(C)C(=O)OC)[C@@H]2CC[C@]1(O)C3`, the GI50 in [1] was 0.2 µM (active); in test [16], 1.71 µM (inactive); in test [2], 1.72 µM (inactive); in test [3], 2.82 µM (inactive); in [4], 1.71 µM (inactive); in [17], 1.55 µM (inactive). Moreover, the GI50 in test [5] was 0.271 µM (active); in test [6] it was 3.38 µM (inactive); in test [7], 1.89 µM (inactive); in test [8] it was 13 µM (inactive); in test [9], 2.02 µM (inactive); in test [10] it was 3.58 µM (inactive). Moreover, the GI50 in [19] was 3.3 µM (inactive); in test [11] it was 1.57 µM (inactive); in test [12] it was 1.78 µM (inactive); in test [13] it was 1.72 µM (inactive); in test [14], 1.84 µM (inactive); in [20], 1.37 µM (inactive). The GI50 in test [15] was 1.84 µM (inactive).
For `CN1COCN/C1=N/C#N`, the GI50 in test [1], in test [16], in [2], in test [3], in test [4] and in test [17] was > 100 µM (inactive) in each case. Further, the GI50 in test [5], in test [7], in test [8], in test [9], in [10] and in test [18] was > 100 µM (inactive) each time. Besides, the GI50 in test [19] was > 100 µM (inactive); in test [13], > 100 µM (inactive); in test [14], > 100 µM (inactive); in test [15], 36.1 µM (inactive).
As to `O=C1C2=C(C3=NCCc4c[nH]c1c43)c1c(cc(Br)c(O)c1Br)CCN2`, the GI50 is 2.56 µM (inactive) in [1]; 20.2 µM (inactive) in [16]; 3.31 µM (inactive) in test [2]; 5.55 µM (inactive) in [3]; 13.6 µM (inactive) in test [4]; 20.3 µM (inactive) in test [17]. The GI50 is 2.81 µM (inactive) in [5]; 11.9 µM (inactive) in test [6]; 11 µM (inactive) in test [7]; 17.9 µM (inactive) in test [8]; 25.2 µM (inactive) in test [9]; 9.27 µM (inactive) in [10]. The GI50 in test [19] is 16.5 µM (inactive); in [11], 13.4 µM (inactive); in test [12], 20.6 µM (inactive); in test [13] it was 7.5 µM (inactive); in test [14], 17.2 µM (inactive); in test [20] it was 14.5 µM (inactive). Further, in test [15], the GI50 was 2.73 µM (inactive).
Consider `NCCCN(CCCN)CCN(CCN(CCCN)CCCN)CCN(CCCN)CCCN`, for which the GI50 is > 10 µM (inactive) in test [1]; > 100 µM (inactive) in [2]; > 100 µM (inactive) in test [3]; > 100 µM (inactive) in test [4]; > 100 µM (inactive) in [17]; > 10 µM (inactive) in test [5]. Further, the GI50 is 66.1 µM (inactive) in test [6]; > 100 µM (inactive) in [7]; > 100 µM (inactive) in test [8]; > 100 µM (inactive) in [9]; > 100 µM (inactive) in test [10]; > 100 µM (inactive) in test [19]. For the same compound, the GI50 was > 100 µM (inactive) in [11]; 82.2 µM (inactive) in [12]; > 100 µM (inactive) in test [13]; > 100 µM (inactive) in [14]; > 100 µM (inactive) in test [20]; > 100 µM (inactive) in test [15].
